Results reported in US20250340538A1, “IMIDAZOLONE DERIVATIVES AS INHIBITORS OF PROTEIN KINASES IN PARTICULAR DYRK1A, CLK1 AND/OR CLK4” (PERHA PHARMACEUTICALS, priority 2021, published 2025).

Key:
DYRK1B = biological target: T1, DYRK1B (Homo sapiens, UniProt Q9Y463); test: Radiometric protein kinase assay (33PanQinase Activity Assay), DYRK1B; format: biochemical; details: read-out: IC50 on DYRK1B (most potent DYRK1B inhibitors)
T1 construct: GST-fusion or His-tag (not specified per kinase); purchased ProQinase GmbH; host or cells: Sf9 insect cells or E. coli (not specified per kinase)
T1 sequence (Q9Y463 whole entry, the tested form may be a part): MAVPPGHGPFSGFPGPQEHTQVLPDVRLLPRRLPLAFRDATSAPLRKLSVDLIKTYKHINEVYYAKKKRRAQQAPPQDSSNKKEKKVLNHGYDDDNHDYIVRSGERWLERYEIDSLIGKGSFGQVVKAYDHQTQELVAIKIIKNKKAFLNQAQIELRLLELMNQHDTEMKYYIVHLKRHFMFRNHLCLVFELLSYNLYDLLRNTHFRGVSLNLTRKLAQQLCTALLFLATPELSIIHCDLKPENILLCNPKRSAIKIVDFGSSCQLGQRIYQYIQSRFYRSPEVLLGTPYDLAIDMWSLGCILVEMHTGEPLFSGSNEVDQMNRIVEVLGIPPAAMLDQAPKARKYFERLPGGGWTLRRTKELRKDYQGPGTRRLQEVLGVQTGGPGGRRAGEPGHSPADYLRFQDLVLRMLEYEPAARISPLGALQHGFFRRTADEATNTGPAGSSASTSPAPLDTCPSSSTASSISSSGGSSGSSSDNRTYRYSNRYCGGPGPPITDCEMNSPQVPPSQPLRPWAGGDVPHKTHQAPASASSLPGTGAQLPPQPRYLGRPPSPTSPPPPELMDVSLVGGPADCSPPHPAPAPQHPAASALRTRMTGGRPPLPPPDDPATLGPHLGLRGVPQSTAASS
Experimental: (§1) Assays were performed by ProQinase GmbH (Engesserstr. 4, D-79108 Freiburg, Germany. www.proqinase.com). The IC50 profile of all compounds was determined using 12 protein kinases (CDK2/cyclin E, CK1ε, CLK1, 2, 3, 4, DYRK1A, 1B, 2, 3, 4, GSK3β).
(§2) The compounds were provided as […] in 100% DMSO. Prior to testing, the 1 μM stock solutions were subjected to a serial, semi-logarithmic dilution using 100% DMSO as a solvent. […] In the process, 90 μl H2O were added to each well of each compound dilution plate. To minimize potential precipitation, the H2O was added to each plate only a few minutes before the transfer of the compound solutions into the assay plates. The plate was shaken thoroughly, resulting in a compound dilution plate/10% DMSO.
(§3) For the assays (see below), 5 μL solution from each well of the compound dilution plates/10% DMSO were transferred into the assay plates. The final volume of the assay was 50 μL. All compounds were tested at 10 final assay concentrations in the range from 10 μM to 30 nM. The final DMSO concentration in the reaction cocktails was 1% in all cases.
All protein kinases provided by ProQinase were expressed in Sf9 insect cells or in E. coli as recombinant GST-fusion proteins or His-tagged proteins, either as full-length or enzymatically active fragments. All kinases were produced from human cDNAs and purified by either GSH-affinity chromatography or immobilized metal. Affinity tags were removed from a number of kinases during purification. The purity of the protein kinases was examined by SDS-PAGE/Coomassie staining, the identity was checked by mass spectroscopy.
A radiometric protein kinase assay (33PanQinase® Activity Assay) was used for measuring the kinase activity of the 12 protein kinases. All kinase assays were performed in 96-well FlashPlates™ from PerkinElmer (Boston, MA, USA) in a 50 μL reaction volume. The reaction cocktail was pipetted in four steps in the following order: • 25 μL of assay buffer (standard buffer/[γ-^33P]-ATP), • 10 μL of ATP solution (in H2O), • 5 μL of test compound (in 10% DMSO), • 10 μL of enzyme/substrate mixture.
The reaction cocktails were incubated at 30° C. for 60 minutes. The reaction was stopped with 50 μL of 2% (v/v) H3PO4, plates were aspirated and washed two times with 200 μL 0.9% (w/v) NaCl. Incorporation of ^33Pi was determined with a microplate scintillation counter (Microbeta, Wallac). The IC50 values for all compounds were calculated from the dose response curves
As a parameter for assay quality, the Z′-factor (Zhang et al., J. Biomol. Screen. 2: 67-73, 1999) for the low and high controls of each assay plate (n=8) was used. ProQinase's criterion for repetition of an assay plate is a Z′-factor below 0.4 (Iversen et al., J. Biomol. Screen. 3: 247-252, 2006).

DYRK4 = biological target: T2, DYRK4 (Homo sapiens, UniProt Q9NR20); test: Radiometric protein kinase assay (33PanQinase Activity Assay), DYRK4; format: biochemical; details: read-out: IC50 on DYRK4 (most potent DYRK4 inhibitors)
T2 construct: GST-fusion or His-tag (not specified per kinase); purchased ProQinase GmbH; host or cells: Sf9 insect cells or E. coli (not specified per kinase)
T2 sequence (Q9NR20 1-520): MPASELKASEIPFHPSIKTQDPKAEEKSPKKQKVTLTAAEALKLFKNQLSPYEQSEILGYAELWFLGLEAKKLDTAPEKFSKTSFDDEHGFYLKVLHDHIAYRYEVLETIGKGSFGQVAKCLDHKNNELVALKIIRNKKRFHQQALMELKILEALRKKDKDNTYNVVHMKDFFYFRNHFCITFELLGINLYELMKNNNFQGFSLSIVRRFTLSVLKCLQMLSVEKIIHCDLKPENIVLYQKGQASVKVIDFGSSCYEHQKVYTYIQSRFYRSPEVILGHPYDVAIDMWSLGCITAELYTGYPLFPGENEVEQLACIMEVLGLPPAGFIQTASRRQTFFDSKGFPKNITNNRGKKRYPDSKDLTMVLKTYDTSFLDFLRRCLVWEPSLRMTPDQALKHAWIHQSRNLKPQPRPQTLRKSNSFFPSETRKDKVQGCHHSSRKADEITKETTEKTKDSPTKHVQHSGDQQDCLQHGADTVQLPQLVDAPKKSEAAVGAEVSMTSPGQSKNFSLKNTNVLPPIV
Experimental: as §1, §2
as §3, with “cases. […]” for “cases.”
The reaction cocktails were incubated at 30° C. for 60 minutes. […] Incorporation of ^33Pi was determined with a microplate scintillation counter (Microbeta, Wallac). The IC50 values for all compounds were calculated from the dose response curves […]

IC50 (DYRK1B): ≤ 10 nM | IC50 (DYRK4): ≤ 300 nM
Structure (SMILES): O=C1NC(NC23CC4CC(CC(O)(C4)C2)C3)=N/C1=C\c1ccc2ncccc2c1 [Compound 50, (4Z)-2-[(3-hydroxy-1-adamantyl)amino]-4-(6-quinolylmethylene)-1H-imidazol-5-one]
